Values of other authors in patent US12064400B1 (priority 2022, dated 2024).

Experiments:
[1] = in vivo
[2] = in vivo; remark: listed apart in the source

SMILES | time in which a human body may absorb peak levels [1] | higher risk for developing a bleed when taking naproxen [2] | people in whom common and serious side effects may occur [2]
COc1ccc2cc([C@H](C)C(=O)O)ccc2c1 [naproxen sodium] | one to two | – | –
COc1ccc2cc([C@H](C)C(=O)O)ccc2c1 [naproxen] | two to four | ten | three to nine
